In the supplement of paper PMC10307832 one finds relative viability data, which are given here for eleven cell lines.

Common to all, as to assay: relative viability (nuclei count vs DMSO), 5 days (fraction); higher = more cells survive
Compound in assay [1]: COc1cc(-c2nn([C@H]3CC[C@H](N4CCN(C(C)=O)CC4)CC3)c3ncnc(N)c23)ccc1NC(=O)c1cc2ccccc2n1C + CS(=O)(=O)N1CCN(Cc2cc3nc(-c4cccc5[nH]ncc45)nc(N4CCOCC4)c3s2)CC1 [Pictilisib] (partner 1 µM)
The method in brief: (§1)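 Medians of duplicate plates are given as relative viability. That measure is the nuclei count in treated wells divided by the count in vehicle wells. Counts were taken on 4× images of lung cancer cell lines in 1536-well plates, 5 days after pin-tool dosing the day after seeding with one drug alone or a fixed anchor-drug dose plus five library-drug doses (not always all listed) in √10 steps.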

Compound in assay [2]: COc1cc(-c2nn([C@H]3CC[C@H](N4CCN(C(C)=O)CC4)CC3)c3ncnc(N)c23)ccc1NC(=O)c1cc2ccccc2n1C + O=C(CCCCCCC(=O)Nc1ccccc1)NO [Vorinostat] (partner 1 µM)
The method in brief:
as §1

Compound in assay [3]: CO[C@@H]1[C@H](N(C)C(=O)c2ccccc2)C[C@H]2O[C@]1(C)n1c3ccccc3c3c4c(c5c6ccccc6n2c5c31)C(=O)NC4 [Midostaurin] + N=C(N)NC(=N)NCCc1ccccc1 [Phenformin] (partner 250 µM)
The method in brief: as §1

Compound in assay [4]: COc1cc(-c2nn([C@H]3CC[C@H](N4CCN(C(C)=O)CC4)CC3)c3ncnc(N)c23)ccc1NC(=O)c1cc2ccccc2n1C + Cc1cc(Nc2cc(N3CCN(C)CC3)nc(Sc3ccc(NC(=O)C4CC4)cc3)n2)n[nH]1 [Tozasertib] (partner 0.1 µM)
The method in brief:
as §1

Compound in assay [5]: COc1cc(-c2nn([C@H]3CC[C@H](N4CCN(C(C)=O)CC4)CC3)c3ncnc(N)c23)ccc1NC(=O)c1cc2ccccc2n1C + CC(=O)Nc1cccc(-n2c(=O)n(C3CC3)c(=O)c3c(Nc4ccc(I)cc4F)n(C)c(=O)c(C)c32)c1 [Trametinib] (partner 0.02 µM)
The gist of the method: as §1

For the cell line LK-2, the relative viability in assay [1] (first compound 0.0128 µM) was determined as 0.557; in assay [1] (first compound 0.04048 µM), 0.543; in assay [1] (first compound 0.128 µM) it was 0.55; in assay [1] (first compound 1.28 µM) it was 0.375; in assay [2] (first compound 0.0128 µM), 0.365; in assay [2] (first compound 0.04048 µM) it was 0.162. The relative viability was found to be 0.288 in assay [2] (first compound 0.128 µM); 0.183 in assay [2] (first compound 1.28 µM); 0.425 in assay [3] (first compound 0.01 µM); 0.571 in assay [3] (first compound 0.03162 µM); 0.492 in assay [3] (first compound 0.1 µM); 0.374 in assay [3] (first compound 0.3162 µM). Also, the relative viability in assay [4] (first compound 0.0128 µM) amounted to 0.195; in assay [4] (first compound 0.04048 µM) it was 0.155; in assay [4] (first compound 0.128 µM), 0.184; in assay [4] (first compound 1.28 µM), 0.165; in assay [5] (first compound 0.0128 µM), 0.978; in assay [5] (first compound 0.04048 µM) it was 0.399. Besides, the relative viability in assay [5] (first compound 0.128 µM) turned out to be 0.577; in assay [5] (first compound 1.28 µM), 0.47.
For LOU-NH91, the relative viability in assay [1] (first compound 0.0128 µM) was 0.517; in assay [1] (first compound 0.04048 µM), 0.555; in assay [1] (first compound 0.128 µM) it was 0.511; in assay [1] (first compound 1.28 µM) it was 0.509; in assay [2] (first compound 0.0128 µM) it was 0.987; in assay [2] (first compound 0.04048 µM), 0.921. The relative viability amounted to 0.909 in assay [2] (first compound 0.128 µM); 0.858 in assay [2] (first compound 1.28 µM); 0.755 in assay [3] (first compound 0.01 µM); 0.701 in assay [3] (first compound 0.03162 µM); 0.764 in assay [3] (first compound 0.1 µM); 0.798 in assay [3] (first compound 0.3162 µM). In addition, the relative viability worked out at 0.664 in assay [4] (first compound 0.0128 µM); 0.598 in assay [4] (first compound 0.04048 µM); 0.699 in assay [4] (first compound 0.128 µM); 0.671 in assay [4] (first compound 1.28 µM); 0.821 in assay [5] (first compound 0.0128 µM); 0.828 in assay [5] (first compound 0.04048 µM). Further, the relative viability in assay [5] (first compound 0.128 µM) is 0.822; in assay [5] (first compound 1.28 µM), 0.728.
As to LU99A, the relative viability in assay [1] (first compound 0.0128 µM) came out at 0.357; in assay [1] (first compound 0.04048 µM), 0.385; in assay [1] (first compound 0.128 µM), 0.391; in assay [1] (first compound 1.28 µM), 0.326; in assay [2] (first compound 0.0128 µM), 0.609; in assay [2] (first compound 0.04048 µM) it was 0.523. Besides, the relative viability in assay [2] (first compound 0.128 µM) was found to be 0.426; in assay [2] (first compound 1.28 µM), 0.628; in assay [3] (first compound 0.01 µM), 0.872; in assay [3] (first compound 0.03162 µM) it was 0.977; in assay [3] (first compound 0.1 µM), 0.899; in assay [3] (first compound 0.3162 µM) it was 0.729. Further, the relative viability worked out at 0.281 in assay [4] (first compound 0.0128 µM); 0.28 in assay [4] (first compound 0.04048 µM); 0.274 in assay [4] (first compound 0.128 µM); 0.252 in assay [4] (first compound 1.28 µM); 0.578 in assay [5] (first compound 0.0128 µM); 0.288 in assay [5] (first compound 0.04048 µM). Moreover, the relative viability in assay [5] (first compound 0.128 µM) amounted to 0.529; in assay [5] (first compound 1.28 µM) it was 0.489.
With NCI-H522, the relative viability in assay [2] (first compound 0.0128 µM) came out at 0.898; in assay [2] (first compound 0.04048 µM) it was 0.946; in assay [2] (first compound 0.128 µM), 0.823; in assay [2] (first compound 1.28 µM), 0.79; in assay [3] (first compound 0.01 µM) it was 0.596; in assay [3] (first compound 0.03162 µM) it was 0.706. Further, the relative viability is 0.655 in assay [3] (first compound 0.1 µM); 0.753 in assay [3] (first compound 0.3162 µM); 0.614 in assay [4] (first compound 0.0128 µM); 0.59 in assay [4] (first compound 0.04048 µM); 0.566 in assay [4] (first compound 0.128 µM); 0.445 in assay [4] (first compound 1.28 µM). Besides, the relative viability in assay [5] (first compound 0.0128 µM) came to 0.77; in assay [5] (first compound 0.04048 µM) it was 0.514; in assay [5] (first compound 0.128 µM) it was 0.723; in assay [5] (first compound 1.28 µM), 0.73.
Turning to NCI-H1299, the relative viability in assay [1] (first compound 0.0128 µM) came to 0.681; in assay [1] (first compound 0.04048 µM), 0.806; in assay [1] (first compound 0.128 µM) it was 0.668; in assay [1] (first compound 1.28 µM), 0.385.
On to NCI-H1563, for which the relative viability in assay [1] (first compound 0.0128 µM) is 0.682; in assay [1] (first compound 0.04048 µM) it was 0.641; in assay [1] (first compound 0.128 µM), 0.656; in assay [1] (first compound 1.28 µM), 0.606; in assay [3] (first compound 0.01 µM), 0.693; in assay [3] (first compound 0.03162 µM), 0.672. Besides, the relative viability in assay [3] (first compound 0.1 µM) was found to be 0.697; in assay [3] (first compound 0.3162 µM), 0.682.
Take NCI-H1648: the relative viability in assay [2] (first compound 0.0128 µM) amounted to 0.536; in assay [2] (first compound 0.04048 µM), 0.48; in assay [2] (first compound 0.128 µM), 0.526; in assay [2] (first compound 1.28 µM) it was 0.341; in assay [4] (first compound 0.0128 µM), 0.381; in assay [4] (first compound 0.04048 µM), 0.514. Also, the relative viability in assay [4] (first compound 0.128 µM) worked out at 0.469; in assay [4] (first compound 1.28 µM), 0.3; in assay [5] (first compound 0.0128 µM) it was 0.478; in assay [5] (first compound 0.04048 µM) it was 0.311; in assay [5] (first compound 0.128 µM), 0.386; in assay [5] (first compound 1.28 µM) it was 0.293.
As for NCI-H1703, the relative viability in assay [1] (first compound 0.0128 µM) is 0.235; in assay [1] (first compound 0.04048 µM), 0.26; in assay [1] (first compound 0.128 µM), 0.222; in assay [1] (first compound 1.28 µM) it was 0.163.
As to NCI-H1792, the relative viability in assay [1] (first compound 0.0128 µM) was 0.237; in assay [1] (first compound 0.04048 µM) it was 0.191; in assay [1] (first compound 0.128 µM), 0.306; in assay [1] (first compound 1.28 µM), 0.354; in assay [3] (first compound 0.01 µM) it was 0.508; in assay [3] (first compound 0.03162 µM), 0.303. The relative viability was found to be 0.428 in assay [3] (first compound 0.1 µM); 0.309 in assay [3] (first compound 0.3162 µM); 0.433 in assay [5] (first compound 0.0128 µM); 0.132 in assay [5] (first compound 0.04048 µM); 0.401 in assay [5] (first compound 0.128 µM); 0.348 in assay [5] (first compound 1.28 µM).
With NCI-H2342, the relative viability is 0.762 in assay [2] (first compound 0.0128 µM); 0.758 in assay [2] (first compound 0.04048 µM); 0.861 in assay [2] (first compound 0.128 µM); 0.825 in assay [2] (first compound 1.28 µM); 0.657 in assay [3] (first compound 0.01 µM); 0.561 in assay [3] (first compound 0.03162 µM). Also, the relative viability in assay [3] (first compound 0.1 µM) amounted to 0.587; in assay [3] (first compound 0.3162 µM) it was 0.643; in assay [4] (first compound 0.0128 µM) it was 0.595; in assay [4] (first compound 0.04048 µM), 0.523; in assay [4] (first compound 0.128 µM) it was 0.491; in assay [4] (first compound 1.28 µM), 0.303. The relative viability turned out to be 0.92 in assay [5] (first compound 0.0128 µM), 0.766 in assay [5] (first compound 0.04048 µM), 0.886 in assay [5] (first compound 0.128 µM) and 0.745 in assay [5] (first compound 1.28 µM).
Regarding SW 900, the relative viability stood at 0.806 in assay [2] (first compound 0.0128 µM); 0.582 in assay [2] (first compound 0.04048 µM); 0.511 in assay [2] (first compound 0.128 µM); 0.621 in assay [2] (first compound 1.28 µM); 0.608 in assay [3] (first compound 0.01 µM); 0.451 in assay [3] (first compound 0.03162 µM). The relative viability in assay [3] (first compound 0.1 µM) amounted to 0.653; in assay [3] (first compound 0.3162 µM), 0.395; in assay [4] (first compound 0.0128 µM), 0.665; in assay [4] (first compound 0.04048 µM), 0.539; in assay [4] (first compound 0.128 µM), 0.402; in assay [4] (first compound 1.28 µM) it was 0.343. For the same cell line, the relative viability in assay [5] (first compound 0.0128 µM) amounted to 1.05; in assay [5] (first compound 0.04048 µM) it was 0.82; in assay [5] (first compound 0.128 µM) it was 0.778; in assay [5] (first compound 1.28 µM) it was 0.432.
